Test results: paper PMC9942557, “Bolaamphiphile Analogues of 12-bis-THA Cl2 Are Potent Antimicrobial Therapeutics with Distinct Mechanisms of Action against Bacterial, Mycobacterial, and Fungal Pathogens” (mSphere, 2022)
Converted amounts (≈) assume the structure as drawn. Like-named read-outs stand apart in the source and are kept apart here.

Key:
P. aeruginosa PAO1 [1] = experiment: Fixed-concentration (0.25× MIC bolalipid) synergy broth microdilution; assay type: cell-based, Pseudomonas aeruginosa; conditions: P. aeruginosa PAO1
P. aeruginosa NCTC 13437 = experiment: as above; assay type: cell-based, Pseudomonas aeruginosa; conditions: P. aeruginosa NCTC 13437
C. glabrata 8018 = experiment: Broth microdilution MIC; assay type: cell-based
C. albicans 3179 = experiment: Broth microdilution MIC; assay type: cell-based, Candida albicans
C. parapsilosis 3209 = experiment: Broth microdilution MIC; assay type: cell-based
C. tropicalis 8760 = experiment: Broth microdilution MIC; assay type: cell-based
C. albicans 3281 = experiment: Broth microdilution MIC; assay type: cell-based, Candida albicans
C. auris temp probe = experiment: Broth microdilution MIC; assay type: cell-based, Candida auris
C. parapsilosis = experiment: Broth microdilution MIC; assay type: cell-based
C. krusei 3876 = experiment: Broth microdilution MIC; assay type: cell-based
P. aeruginosa PAO1 [2] = experiment: Checkerboard synergy assay; assay type: cell-based, Pseudomonas aeruginosa
HEK293 = experiment: In vitro toxicity for cell line; assay type: cell-based, human; conditions: HEK293; average ± standard error from 3 independent repeats
From the text: (§1) TABLE 2 Toxicity of bolaamphiphiles for two cell lines^a | column: Toxicity (EC50 [μg/ml]) of: / 12-bis-THA Cl2; Toxicity (EC50 [μg/ml]) of: / Dequalinium; Toxicity (EC50 [μg/ml]) of: / Quino-bola; Toxicity (EC50 [μg/ml]) of: / Penta-bola; Toxicity (EC50 [μg/ml]) of: / Hepta-bola; Toxicity (EC50 [μg/ml]) of: / Octa-bola; Toxicity (EC50 [μg/ml]) of: / Octa-C10; Toxicity (EC50 [μg/ml]) of: / Octa-C8; Toxicity (EC50 [μg/ml]) of: / Octa-C6

HeLa = experiment: In vitro toxicity for cell line; assay type: cell-based, human; conditions: average ± standard error from 3 independent repeats
From the text: as §1

[3] = system: pBR322 plasmid, wheat germ topoisomerase I; experiment: DNA unwinding assay; assay type: biochemical
Description: A DNA unwinding assay kit (Inspiralis Limited, Norwich, UK) consists of wheat germ topoisomerase I assay buffer (50 mM Tris HCl [pH 7.9], 1 mM EDTA, 1 mM dithiothreitol [DTT], 20% [vol/vol] glycerol, 50 mM NaCl) dilution buffer (50 mM Tris HCl [pH 7.9], 1 mM EDTA, 1 mM DTT, 50% [vol/vol] glycerol, 500 mM NaCl), wheat germ topoisomerase I (5 U/μL), supercoiled plasmid pBR322 (1 μg/μL), and relaxed plasmid pBR322 (1 μg/μL). For the experiments, 2× DNA loading buffer containing 40% (wt/vol) sucrose, 100 mM Tris-HCl (pH 8), 1 mM EDTA, and 0.5 mg/mL bromophenol blue was prepared. The enzyme was diluted 1/5 with dilution buffer before being used in the assay. For the assay, 3 mM stock solutions in methanol of the compounds to be tested were prepared. An appropriate number of 1.5-mL Eppendorf tubes were filled with 25 μL of a mix consisting of assay buffer (15 μL of buffer per sample), supercoiled or relaxed pBR322 (0.5 μg/assay), and ultrapure water. In the first two tubes, 1 μL of methanol was added to test the effect of the solvent on both the plasmid and the enzyme. Subsequently, 1 μL of the test compounds was added to the remaining tubes, and the tubes briefly vortexed and incubated at room temperature for 5 min. After that, 2 μL of dilution buffer was added in the first tube, whereas 2 μL of enzyme diluted solution was added to the remaining tubes. The tubes were gently vortexed and incubated for 30 min at 37°C in a water bath. After this time, the reaction was stopped by adding 20 μL of water and 50 μL of water-saturated butanol to each tube. The tubes were vortexed and centrifuged for 1 min at 14,800 rpm. The lower aqueous layer of each tube was removed and transferred to a new tube containing 30 μL of chloroform-isoamyl alcohol (24/1) and 50 μL of loading buffer. The tubes were briefly vortexed and centrifuged for 1 min. Twenty microliters of the upper layer of each tube was loaded onto a 1% (wt/vol) agarose gel, and the gel was run at 80 V for approximately 4 h in Tris-acetate-EDTA buffer (40 mM Tris acetate and 1 mM EDTA). Subsequently, the gel was stained with ethidium bromide (1 μg/mL) for 15 min, briefly destained (5 to 10 min) in water, and visualized with a Multi-Doc Imaging M-26X UVP transilluminator.

[4] = system: Pseudomonas aeruginosa PAO1; experiment: Broth microdilution MIC; assay type: cell-based
Klebsiella pneumoniae M6 = experiment: Broth microdilution MIC; assay type: cell-based
[5] = system: VR Enterococcus faecalis NCTC 12201; experiment: Broth microdilution MIC; assay type: cell-based; conditions: VR Enterococcus faecalis NCTC 12201
[6] = system: Acinetobacter baumannii AYE; experiment: Broth microdilution MIC; assay type: cell-based; conditions: Acinetobacter baumannii AYE
[7] = system: Klebsiella pneumoniae NCTC 13368; experiment: Broth microdilution MIC; assay type: cell-based
[8] = system: VS Enterococcus faecalis NCTC 775; experiment: Broth microdilution MIC; assay type: cell-based
[9] = system: EMR Staphylococcus aureus 15 NCTC 13616; experiment: Broth microdilution MIC; assay type: cell-based; conditions: EMR Staphylococcus aureus 15 NCTC 13616
[10] = system: EMR Staphylococcus aureus 16 NCTC 13277; experiment: Broth microdilution MIC; assay type: cell-based; conditions: EMR Staphylococcus aureus 16 NCTC 13277
[11] = system: Escherichia coli ATCC 25922; experiment: Intrahemocoelic G. mellonella infection model; assay type: in vivo, Galleria mellonella; conditions: single 10-mg/kg dose 1 h after infection
Description: The antimicrobial activities of DQC, CM2, and its analogues Quino-bola, Penta-bola, Hepta-bola, and Octa-bola against Escherichia coli ATCC 25922 were tested in Galleria mellonella larvae. All assays were performed on two separate occasions using a group size of 10 larvae; the larvae were kept in separate petri dishes and in a static incubator at 37°C during the period of the experiment. A suspension of E. coli ATCC 25922 was prepared by transferring two colonies of E. coli ATCC 25922 from a fresh agar plate into PBS and adjusting the absorbance to a McFarland 0.5 standard. The number of CFU per milliliter of this suspension was determined and corresponded to 1 × 10^8 CFU/mL. Larvae were injected beneath the tegument with 10 μL of a 1 × 10^7-CFU/mL bacteria suspension, corresponding to 1 × 10^5 CFU per larva. A 50-μL Hamilton syringe with a G27 needle was used for the injection. […] Ten microliters of stock solution was injected into each larva 1 h after infection (10 mg/kg). Levofloxacin (LVX; 50 μg/mL = 2 mg/kg) and PBS were used as positive and negative controls, respectively. A noninfected PBS injection was included to control for the effects of injection. Survival was monitored over a period of 70 to 72 h. Changes in G. mellonella survival were analyzed by the log rank (Mantel-Cox) method and plotted as Kaplan-Meier survival curves using GraphPad Prism version 7.

[12] = system: Pseudomonas aeruginosa NCTC 13437; experiment: Broth microdilution MIC; assay type: cell-based
[13] = system: Escherichia coli NCTC 12923; experiment: Broth microdilution MIC; assay type: cell-based
[14] = system: VR Enterococcus faecium NCTC 12204; experiment: Broth microdilution MIC; assay type: cell-based; conditions: VR Enterococcus faecium NCTC 12204
[15] = system: Acinetobacter baumannii ATCC 17978; experiment: Broth microdilution MIC; assay type: cell-based
M. tuberculosis Bleupan = assay type: in vivo, Galleria mellonella; conditions: in vivo
[16] = in the presence of 0.25× MIC Octa-bola (Table S1)
[17] = in the presence of 0.25× MIC Octa-C10 (Table S1)
[18] = Lodderomyces parapsilosis, read-out: MIC

SMILES: CC1(C)S[C@@H]2[C@H](NC(=O)[C@H](N)c3ccccc3)C(=O)N2[C@H]1C(=O)O [Ampicillin]
- MIC of antibiotic (P. aeruginosa PAO1 [1]; No bola (Table S1)): > 512 µg/mL
- MIC of antibiotic (P. aeruginosa PAO1 [1]; [16]): > 512 µg/mL
- MIC of antibiotic (P. aeruginosa NCTC 13437; No bola (Table S1)): > 512 µg/mL
- MIC of antibiotic (P. aeruginosa NCTC 13437; [17]): > 512 µg/mL
- MIC of antibiotic (P. aeruginosa NCTC 13437; [16]): > 512 µg/mL

SMILES: CC(C)(O/N=C(\C(=O)N[C@@H]1C(=O)N2C(C(=O)[O-])=C(C[n+]3ccccc3)CS[C@H]12)c1csc(N)n1)C(=O)O [Ceftazidime]
- MIC of antibiotic (P. aeruginosa PAO1 [1]; No bola (Table S1)): 2 µg/mL
- MIC of antibiotic (P. aeruginosa PAO1 [1]; [16]): 2 µg/mL
- MIC of antibiotic (P. aeruginosa NCTC 13437; No bola (Table S1)): > 128 µg/mL
- MIC of antibiotic (P. aeruginosa NCTC 13437; [17]): > 128 µg/mL
- MIC of antibiotic (P. aeruginosa NCTC 13437; [16]): > 128 µg/mL

SMILES: O=C(O)c1cn(C2CC2)c2cc(N3CCNCC3)c(F)cc2c1=O [Ciprofloxacin]
- MIC of antibiotic (P. aeruginosa PAO1 [1]; No bola (Table S1)): 0.125 µg/mL
- MIC of antibiotic (P. aeruginosa PAO1 [1]; [17]): 1 µg/mL
- MIC of antibiotic (P. aeruginosa PAO1 [1]; [16]): 1 µg/mL
- MIC of antibiotic (P. aeruginosa NCTC 13437; No bola (Table S1)): 32 µg/mL
- MIC of antibiotic (P. aeruginosa NCTC 13437; [17]): > 64 µg/mL
- MIC of antibiotic (P. aeruginosa NCTC 13437; [16]): > 64 µg/mL

SMILES: C[C@H]1c2cccc(O)c2C(=O)C2=C(O)[C@]3(O)C(=O)C(C(N)=O)=C(O)[C@@H](N(C)C)[C@@H]3[C@@H](O)[C@@H]21 [Doxycyline]
- MIC of antibiotic (P. aeruginosa PAO1 [1]; No bola (Table S1)): 32 µg/mL
- MIC of antibiotic (P. aeruginosa PAO1 [1]; [17]): 64 µg/mL
- MIC of antibiotic (P. aeruginosa PAO1 [1]; [16]): 128 µg/mL
- MIC of antibiotic (P. aeruginosa NCTC 13437; No bola (Table S1)): > 256 µg/mL
- MIC of antibiotic (P. aeruginosa NCTC 13437; [17]): > 256 µg/mL
- MIC of antibiotic (P. aeruginosa NCTC 13437; [16]): > 256 µg/mL

SMILES: OC(Cn1cncn1)(Cn1cncn1)c1ccc(F)cc1F [Fluconazole, reference compound]
- MIC (C. glabrata 8018; Nakaseomyces glabratus, 8018): > 128 µg/mL
- MIC (C. albicans 3179; Candida albicans, 3179): > 128 µg/mL
- MIC (C. parapsilosis 3209; [18]): 0.25 µg/mL (≈ 0.816 µM)
- MIC (C. tropicalis 8760; Candida tropicalis, 8760): > 128 µg/mL
- MIC (C. albicans 3281; Candida albicans, 3281): > 128 µg/mL
- MIC (C. auris temp probe; Candidozyma auris): > 128 µg/mL
- MIC (C. parapsilosis; [18]): 0.5 µg/mL (≈ 1.63 µM)
- MIC (C. krusei 3876; Pichia kudriavzevii, read-out: MIC): 32 µg/mL (≈ 104 µM)

SMILES: Nc1c2c([n+](CCCCCCCCCCCC[n+]3c4c(c(N)c5ccccc53)CCCCC4)c3ccccc13)CCCCC2 [Hepta-bola]
- MIC alone Bolalipid (P. aeruginosa PAO1 [2]): 32 µg/mL
- Toxicity (EC50) (HEK293): 3.5 ± 1.2 µg/mL
- Toxicity (EC50) (HeLa): 4.5 ± 0.7 µg/mL
- MIC (C. glabrata 8018; C. glabrata 8018): 0.25 µg/mL
- DNA intercalation ([3]; relaxed pBR322 plasmid plus topoisomerase I (Fig. 2A)): to a slightly lesser extent, Hepta-bola are intercalators
- relaxation of supercoiled plasmid through the action of topoisomerase I ([3]; supercoiled pBR322 plasmid, bolalipid present (Fig. 2B)): not observed
- MIC (C. albicans 3179; C. albicans 3179): 0.5 µg/mL
- MIC [4]: 32 µg/mL
- MIC (C. parapsilosis 3209): 1 µg/mL
- MIC (Klebsiella pneumoniae M6): 16 µg/mL
- MIC (C. tropicalis 8760; C. tropicalis 8760): 0.25 µg/mL
- MIC [5]: 0.5 µg/mL
- MIC [6]: 16 µg/mL
- MIC (C. albicans 3281; C. albicans 3281): 0.5 µg/mL
- MIC [7]: 32 µg/mL
- MIC [8]: 1 µg/mL
- MIC [9]: 0.25 µg/mL
- MIC (C. auris temp probe; C. auris temp probe): 2 µg/mL
- MIC [10]: 0.25 µg/mL
- protection (survival over 72 h) [11]: significantly protective
- MIC [12]: 32 µg/mL
- MIC (C. parapsilosis): 2 µg/mL
- MIC (C. krusei 3876): 0.5 µg/mL
- MIC [13]: 2 µg/mL
- MIC [14]: 0.5 µg/mL
- MIC [15]: 16 µg/mL

SMILES: C[C@@H](O)[C@H]1C(=O)N2C(C(=O)O)=C(S[C@@H]3CN[C@H](C(=O)N(C)C)C3)[C@H](C)[C@H]12 [Meropenem]
- MIC of antibiotic (P. aeruginosa PAO1 [1]; No bola (Table S1)): > 2 µg/mL
- MIC of antibiotic (P. aeruginosa PAO1 [1]; [16]): > 2 µg/mL
- MIC of antibiotic (P. aeruginosa NCTC 13437; No bola (Table S1)): > 32 µg/mL
- MIC of antibiotic (P. aeruginosa NCTC 13437; [17]): > 32 µg/mL
- MIC of antibiotic (P. aeruginosa NCTC 13437; [16]): > 32 µg/mL

SMILES: CO[C@H]1/C=C/O[C@@]2(C)Oc3c(C)c(O)c4c(O)c(c(/C=N/N5CCN(C)CC5)c(O)c4c3C2=O)NC(=O)/C(C)=C\C=C\[C@H](C)[C@H](O)[C@@H](C)[C@@H](O)[C@@H](C)[C@H](OC(C)=O)[C@@H]1C [Rifampin]
- larvae rescued (M. tuberculosis Bleupan): All G. mellonella larvae were rescued
- MIC of antibiotic (P. aeruginosa PAO1 [1]; No bola (Table S1)): 16 µg/mL
- MIC of antibiotic (P. aeruginosa PAO1 [1]; [17]): 8 to 16 µg/mL
- MIC of antibiotic (P. aeruginosa PAO1 [1]; [16]): 16 µg/mL
- MIC of antibiotic (P. aeruginosa NCTC 13437; No bola (Table S1)): 16 µg/mL
- MIC of antibiotic (P. aeruginosa NCTC 13437; [17]): 8 µg/mL
- MIC of antibiotic (P. aeruginosa NCTC 13437; [16]): 16 µg/mL
